Data on 5 compounds can be found in patent US8697731B2, “Derivatives of 2-pyridin-2-yl-pyrazol-3(2H)-one, preparation and therapeutic use thereof” (Sanofi, priority 2008, dated 2014).

For one data set, the system named is EPO. Put plainly: Measurement of the secretion of EPO by Hep3B hepatocytes (ELISA). The data set is classed as cell-based. The conditions noted are these: Homo sapiens, supernatant of Hep3B cells, 18 hours under normoxia, concentration that produces 50% of the maximum response of this same compound. Here is the method: (§1) The test is an ELISA test for measuring VEGF and EPO in the supernatant of Hep3B cells treated under hypoxia or with deferoxamine as controls or with the potential HIF activators. The test was adapted to a 96-well plate, allowing greater compound screening capacity.
(§2) 2.3.1 Experiment Plan • 1) Inoculation of the cells on D0 • 2) Adherence for 6 hours under normoxia • 3) Preparation and addition of the products (Biomek 2000 and FX) • 4) Incubation under normoxia for 18 hours • 5) EPO and VEGF assay in the supernatant on D+1
(§3) The cells are subcultured into 100 μl of culture medium (10% FCS) in black, opaque-bottomed 96-well plates (reference Costar 3916) at 30000 cells/well, with Multidrop.
(§4) The test products are prepared at 10^−2M in 100% DMSO and then diluted to […] in medium containing 0.1% FCS (6 μl in 194 μl of MEM). 200 μl of each compound are deposited in column 12 of a 96-well plate. Dilution ranges from 3×10^−4M to 3×10^−8M are prepared with Biomek 2000 (programme: range of 9 points in series). 100 μl of MEM 0.1% FCS and Deferoxamine 5×10^−3M are added as controls to column 3 and, respectively, to wells A,B,C,D & wells E,F,G,H
(§5) The medium of the cells inoculated the day before into 96-well plates is changed for 90 μl of medium containing 0.1% FCS and 10 μl are distributed with FX 96 from the 96-well DL plates to the cell plates.
(§6) The cell plates thus treated are placed for 18 hours in an incubator at 37° C. (ambient O2, 6% CO2).
(§7) The supernatants (80 μl) of the Hep3B cells in the 96-well plates treated with the potential HIF activators are recovered with a multichannel pipette for simultaneous assay of the VEGF and the EPO by ELISA according to the supplier's instructions (Kit EPO Mesoscale (ref K15122B-2)).
(§8) The activating activity of a compound with respect to HIF is given by the concentration that produces 50% of the maximum response of this same compound in Table IV.
On the technique in general: ELISA stands for enzyme-linked immunosorbent assay.

For another data set, the system named is VEGF. Put plainly: Measurement of the secretion of VEGF by Hep3B hepatocytes (ELISA). The conditions noted are these: Homo sapiens, supernatant of Hep3B cells, 18 hours under normoxia, concentration that produces 50% of the maximum response of this same compound. Format: cell-based. Here is the method: as §1, §2, §3, §4, §5, §6, §7, §8
Another data set has as its system HIF1-alpha. Put plainly: Measurement of the stabilization of HIF1-alpha in HEKEA cells (beta-galactosidase complementation). The data set is classed as cell-based, human. The conditions noted are these: HEKEA_HIF1-alphaPLBL cells, 6 hours under normoxia, luminescence; molar concentration that produces 50% of the maximum response of this same compound. The source says:
Furthermore, a subject of the invention is also a uniform test for the direct measurement by beta-galactosidase complementation of the amount of HIF1-alpha protein in the nucleus of cells, preferably HEK cells, after treating the said cells with one or more test compounds, which consists in: • (a) inoculating, preferably in 384-well plates, the said cells in a suitable culture medium, preferably 1% foetal calf serum (abbreviated as FCS); • (b) adding the test compound(s) at a suitable concentration in a suitable solvent to the cells previously inoculated in the said culture medium; preferably the test compounds are diluted in 0.1% FCS; • (c) incubating the said cells thus prepared in an indicator at about 37° C., advantageously for about 6 hours; • (d) lysing the cells with a lysis buffer containing a chemiluminescent substrate for beta-galactosidase; • (e) incubating in the absence of light, before reading and measuring the luminescence, which is a function of the beta-galactosidase activity.
The test is a cell test based on the principle of enzyme complementation, the enzyme used herein being beta-galactosidase. HEKEA cells are HEK cells stably expressing, and restricted in their nucleus, mutant beta-galactosidase (omega fragment, also known as EA) (line sold by DiscoverX). This construct makes it possible to obtain beta-galactosidase activity only when the protein comprising the Prolabel complementation fragment has migrated into the nucleus.
The protein of interest comprising the Prolabel fragment is in this case an HIF1-alpha or HIF1-alpha mutated at the two prolines 402 and 564 replaced with alanines, is C-terminal fused via molecular biology (DiscoverX vector sold by Clontech) with the small complementation peptide fragment (Prolabel or ED, about 4 kDa). The vector coding for the chimeric protein HIF1-alpha_Prolabel is then transfected into HEKEA cells to obtain stable clones (HEKEA_HIF1-alphaPLBL).
The amount of C-terminal Prolabel-“labelled” HIF1-alpha protein obtained after treating the cells to hypoxia or compounds that are potentially HIF activators is measured by adding to the cells a lysis buffer containing a chemiluminescent substrate for beta-galactosidase.
The measurement of the beta-galactosidase activity will be proportional to the amount of Prolabel and thus of HIF1-alpha that has migrated into the nucleus of the cells.
1.3.1 Experiment Plan • 1) Inoculation of the cells on D0 • 2) Adherence for 24 hours under normoxia • 3) Preparation and addition of the products (Biomek 2000 and FX) on D+1 • 4) Incubation under normoxia for 6 hours • 5) Reading of the plates (by luminescence)
The cells are inoculated with Multidrop in white, opaque-bottomed 384-well plates (Greiner ref 3704), in 30 μl of culture medium (1% FCS) a 10000 cells/well (cell plate).
The test products are prepared at 3×10^−2 M in 100% DMSO and then diluted to 3×10^−4 M in medium containing 0.1% FCS (10 μl in 990 μl of MEM). They are then deposited by hand into column 12 of a round-bottomed 96-well plate (200 μl of each compound) known as the dilution plate (dl). The complete DL plate of 3×10^−4 M to 10^−9 M is then prepared with Biomek 2000 (programme: range of 10 points in series). For the references and controls, 100 μl of DMEM containing 0.1% FCS are added to column 1, 100 μl of Deferoxamine 10^−3M to column 2, wells A B C D and 100 μl of Deferoxamine 5×10^−3 M to column 2, wells E F G H.
3.3 μL are taken from the DL plate by pipetting with a Biomek FX 96 and placed in horizontal duplicate (columns 1 to 24) in each 384-well cell plate (HEKEA_HIF1-alphaPLBL cell plate).
The cells are then placed for 6 hours in an incubator at 37° C. (ambient O2, 6% CO2).
The kit used is the Prolabel chemiluminescent kit (Ref 93-0001 DiscoverX). […]

By EC50 is commonly meant the midpoint of the concentration-response curve. The low end stands for greater potency, the high end for weaker potency. For orientation: melting point means the temperature, or range, at which the solid turns liquid. Compound `CCN(c1ccccc1)S(=O)(=O)c1ccc(-n2[nH]c3c(c2=O)SCCC3)nc1` [Compound 24, N-ethyl-6-(3-oxo-3,5,6,7-tetrahydrothiopyrano[3,2-c]pyrazol-2(1H)-yl)-N-phenylpyridine-3-sulfonamide] gave a melting point of 198 °C. The EC50 in the data set with EPO was 500 nM. Besides, the response in the data set on VEGF was half-maximal at 500 nM (EC50). The EC50 in the data set with HIF1-alpha was found to be 3000 nM.
`CCN(c1ccccc1)S(=O)(=O)c1ccc(-n2[nH]c3c(c2=O)COCC3)nc1` [Compound 25, N-ethyl-6-(3-oxo-1,4,6,7-tetrahydropyrano[4,3-c]pyrazol-2(3H)-yl)-N-phenylpyridine-3-sulfonamide] registered a melting point of 164 °C. In the data set with EPO, this compound registered an EC50 of 2400 nM. In addition, a half-maximal response with VEGF (EC50) required 2500 nM. This compound registered an EC50 in the data set on HIF1-alpha of 3300 nM.
For `O=c1c2c([nH]n1-c1ccc(S(=O)(=O)N3CCCCCC3)cn1)CSC2` [Compound 26, 2-[5-(azepan-1-ylsulfonyl)pyridin-2-yl]-1,2,4,6-tetrahydro-3H-thieno[3,4-c]pyrazol-3-one], in that order: 236 °C, 1000 nM, 1300 nM and 1500 nM.
The like results for `CCN(c1ccccc1)S(=O)(=O)c1ccc(-n2[nH]c3c(c2=O)CN(C(=O)OC(C)(C)C)CC3)nc1` [Compound 28, tert-butyl 2-[5-[ethyl(phenyl)sulfamoyl]pyridin-2-yl]-3-oxo-1,2,3,4,6,7-hexahydro-5H-pyrazolo[4,3-c]pyridine-5-carboxylate] were, in that order, 192 °C, 1000 nM, 1000 nM and 1600 nM.
The like results for `CCN(c1ccccc1)S(=O)(=O)c1ccc(-n2[nH]c3c(c2=O)CN(C(C)=O)CC3)nc1` [Compound 29, 6-(5-acetyl-3-oxo-1,3,4,5,6,7-hexahydro-2H-pyrazolo[4,3-c]pyridin-2-yl)-N-ethyl-N-phenylpyridine-3-sulfonamide] were, in that order, 118 °C, 2500 nM, 2600 nM and 2500 nM.
